Laboratory results as given in patent US4062950A, “Amino sugar derivatives” (priority 1973, dated 1977).
Values joined by “and” are separate entries in the source; they are usually repeats but may differ in a detail not shown here. Equal values may be shown once.

How the values were obtained:
saccharase = molecular target: T1, saccharase (Sus scrofa, UniProt P56729); assay: In vitro saccharase test; assay type: biochemical, pig; conditions: for Saccharase Inhibition: Table II; for Saccharase Inhibition In Vitro: Table IV; for saccharase inhibiting activity of isolated product: product of the Examples
T1 construct: sucrase subunit of the sucrase-isomaltase complex hydrolyses sucrose
T1 sequence (P56729 with tags, fused parts or gaps): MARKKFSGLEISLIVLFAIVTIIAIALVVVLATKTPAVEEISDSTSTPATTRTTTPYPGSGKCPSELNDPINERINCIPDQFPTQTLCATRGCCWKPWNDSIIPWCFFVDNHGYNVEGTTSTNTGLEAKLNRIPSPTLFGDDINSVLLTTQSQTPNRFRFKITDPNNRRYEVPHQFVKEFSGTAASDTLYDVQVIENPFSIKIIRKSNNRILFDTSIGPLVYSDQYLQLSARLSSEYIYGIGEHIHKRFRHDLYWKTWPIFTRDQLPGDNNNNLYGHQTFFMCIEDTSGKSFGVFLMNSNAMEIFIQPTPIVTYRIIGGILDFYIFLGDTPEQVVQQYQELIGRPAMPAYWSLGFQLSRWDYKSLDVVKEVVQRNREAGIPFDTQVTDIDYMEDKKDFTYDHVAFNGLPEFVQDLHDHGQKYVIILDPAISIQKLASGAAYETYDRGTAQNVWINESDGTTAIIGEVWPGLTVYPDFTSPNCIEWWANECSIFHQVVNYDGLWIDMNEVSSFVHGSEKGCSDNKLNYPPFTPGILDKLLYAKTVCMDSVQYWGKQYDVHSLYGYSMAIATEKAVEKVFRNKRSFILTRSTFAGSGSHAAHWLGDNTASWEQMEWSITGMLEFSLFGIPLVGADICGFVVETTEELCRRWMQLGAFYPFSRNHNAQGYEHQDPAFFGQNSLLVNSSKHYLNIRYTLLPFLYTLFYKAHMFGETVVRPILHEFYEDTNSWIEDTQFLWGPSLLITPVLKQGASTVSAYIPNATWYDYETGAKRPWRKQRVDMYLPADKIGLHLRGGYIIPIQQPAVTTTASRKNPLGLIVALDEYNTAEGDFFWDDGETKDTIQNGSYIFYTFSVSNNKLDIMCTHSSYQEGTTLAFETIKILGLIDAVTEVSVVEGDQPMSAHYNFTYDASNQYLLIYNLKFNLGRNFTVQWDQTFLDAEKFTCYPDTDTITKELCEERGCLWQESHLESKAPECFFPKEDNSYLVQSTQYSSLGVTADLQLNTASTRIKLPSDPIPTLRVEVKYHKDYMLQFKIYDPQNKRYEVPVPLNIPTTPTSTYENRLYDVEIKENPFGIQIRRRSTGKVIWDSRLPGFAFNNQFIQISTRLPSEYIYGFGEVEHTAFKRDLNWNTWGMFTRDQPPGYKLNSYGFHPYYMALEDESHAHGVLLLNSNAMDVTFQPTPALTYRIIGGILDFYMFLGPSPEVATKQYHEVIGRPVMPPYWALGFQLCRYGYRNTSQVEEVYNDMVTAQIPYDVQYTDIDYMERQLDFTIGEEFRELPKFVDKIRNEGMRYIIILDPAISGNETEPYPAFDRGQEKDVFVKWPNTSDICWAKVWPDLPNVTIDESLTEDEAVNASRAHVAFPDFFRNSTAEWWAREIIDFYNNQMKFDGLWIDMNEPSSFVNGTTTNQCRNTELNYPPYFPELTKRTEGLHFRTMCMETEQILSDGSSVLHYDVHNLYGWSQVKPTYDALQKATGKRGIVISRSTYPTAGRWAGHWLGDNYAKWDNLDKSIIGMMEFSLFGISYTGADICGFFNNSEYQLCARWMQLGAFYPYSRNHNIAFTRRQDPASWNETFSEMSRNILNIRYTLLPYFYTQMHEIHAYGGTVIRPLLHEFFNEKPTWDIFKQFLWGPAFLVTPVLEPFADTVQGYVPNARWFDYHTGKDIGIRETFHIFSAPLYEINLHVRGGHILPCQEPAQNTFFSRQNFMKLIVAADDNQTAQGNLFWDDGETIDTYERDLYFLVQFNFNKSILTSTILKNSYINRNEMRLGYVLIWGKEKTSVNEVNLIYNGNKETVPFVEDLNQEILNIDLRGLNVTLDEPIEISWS
Method: One saccharase inhibitor unit (SIU) is defined as the amount of inhibitor which inhibits two saccharase units to the extent of 50%. One saccharase unit (SU) is the amount of enzyme which under the test conditions specified splits 1 μmol of sucrose to glucose and fructose per minute. The μmols of glucose formed are determined quantitatively by means of the glucose oxidase reaction under conditions under which a further splitting of the sucrose by the saccharase no longer takes place. To carry out the test, 0.05 ml of solubilized saccharase [from the mucous membrane of the small intestine of the pig, according to B. Borgastrom, A. Dahlquist, Acta Chem. Scand. 12, (1958), page 1,997], diluted with 0.1 M sodium maleate buffer of pH 6.0 to a SU content adjusted to 0.12 SU is mixed with 0-20 μg of inhibitor or 0-20 μl of the solution to be tested and brought up to 0.1 ml with 0.1 M sodium maleate buffer of pH 6.0. The mixture is equilibrated for 10 minutes at 35° C and 0.1 ml of an 0.05 M sucrose solution in 0.1 M sodium maleate buffer of pH 6.0, pre-warmed to 35° C, is then added. The mixture is incubated for 20 minutes at 35° C, the saccharase reaction is stopped by addition of 1 ml of glucose oxidase reagent, and the incubation is continued for a further 30 minutes at 35° C. (The glucose oxidase reagent is prepared by dissolving 2 mg of glucose oxidase, Boehringer, No. 15,423, in 100 ml of 0.565 M tris-HCl buffer of pH 7.0 and subsequently adding 1 ml of detergent solution (2 g of Triton X 100 + 8 g of 95% strength and analytical grade ethanol), 1 ml of dianisidine solution (260 mg of o-dianisidine. 2HCl in 20 ml of H2 O) and 0.5 ml of 0.1% strength aqueous peroxidase solution, Boehringer, No. 15,302). Thereafter, 1 ml of 50% strength H2 SO4 is added and a measurement carried out at 545 nm against a corresponding blank. To evaluate the results, the percentage inhibition of the saccharase employed is calculated and converted to SIU/g of SIU/liter from the 50% inhibition point, using a glucose calibration curve.

starch digestion = assay: In vivo starch digestion inhibition (starch feeding test) in the fasting rat; conditions: for ED50: ED50, starch, fasting rat, Table VI; for in vivo inhibition of starch digestion, in words: compared with expectation from in vitro amylase inhibition
Method: The produce an alimentary hyperglycemia and hyperinsulinaemia, groups of 6 fasting rats are given (a) 2.5 g of sucrose, (b) 2.5 g of maltose or (c) 1 g of boiled starch orally, in aqueous solution or suspension. Six other rats are given the same carbohydrates in the same amount and a glycoside hydrolase inhibitor in the amount indicated. In addition, six other rats are given an appropriate volume of saline. The blood glucose and the serum insulin are then measured at short intervals of time, in the blood from the retro-orbital venous plexus.

Solubility = assay type: physicochemical; conditions: water, dimethylformamide, dimethylsulfoxide, methanol and hot ethanol

C[C@H]1O[C@H](O[C@H]2[C@H](O)[C@@H](O)C(O)O[C@@H]2CO)[C@H](O)[C@@H](O)[C@@H]1N[C@H]1C=C(CO)[C@@H](O)[C@H](O)[C@H]1O (stereo partly drawn) [Formula IIB, O-{4,6-bisdesoxy-4-[1 S-(1,4,6/5)-4,5,6-trihydroxy-3-hydroxymethylcyclohex-2-en-1-ylamino]-α-D-glucopyranosyl}-(1→4)-D-glucopyranose]
Saccharase inhibition relative to the derivative having two units (saccharase; in vitro, in words): only half as much | Saccharase Inhibition (saccharase; in vitro): 30,000 SIU/g | Saccharase Inhibition In Vitro (saccharase; in vitro): 30 SIU/mg | saccharase inhibiting activity of isolated product (saccharase; listed as one glucose unit): 30,000 SIU/g and 35,000 SIU/g | Blood Glucose (Mean ± SD) (starch digestion; 1 g starch + 75 AIU oral, 5 Min.): 102 ± 2.9 mg% | Blood Glucose (Mean ± SD) (starch digestion; 1 g starch + 75 AIU oral, 10 Min.): 130 ± 6.9 mg% | Blood Glucose (Mean ± SD) (starch digestion; 1 g starch + 75 AIU oral, 15 Min.): 128 ± 5.4 mg% | Blood Glucose (Mean ± SD) (starch digestion; 1 g starch + 75 AIU oral, 20 Min.): 143 ± 11 mg% | Blood Glucose (Mean ± SD) (starch digestion; 1 g starch + 75 AIU oral, 30 Min.): 125 ± 11 mg% | Blood Glucose (Mean ± SD) (starch digestion; 1 g starch + 75 AIU oral, 45 Min.): 132 ± 18 mg% | Blood Glucose (Mean ± SD) (starch digestion; 1 g starch + 150 AIU oral, 5 Min.): 98 ± 8.7 mg% | Blood Glucose (Mean ± SD) (starch digestion; 1 g starch + 150 AIU oral, 10 Min.): 116 ± 9.0 mg% | Blood Glucose (Mean ± SD) (starch digestion; 1 g starch + 150 AIU oral, 15 Min.): 128 ± 5.8 mg% | Blood Glucose (Mean ± SD) (starch digestion; 1 g starch + 150 AIU oral, 20 Min.): 127 ± 4.8 mg% | Blood Glucose (Mean ± SD) (starch digestion; 1 g starch + 150 AIU oral, 30 Min.): 115 ± 5.2 mg% | Blood Glucose (Mean ± SD) (starch digestion; 1 g starch + 150 AIU oral, 45 Min.): 137 ± 5.2 mg% | Blood Glucose (Mean ± SD) (starch digestion; 1 g starch + 300 AIU oral, 5 Min.): 87 ± 13 mg% | Blood Glucose (Mean ± SD) (starch digestion; 1 g starch + 300 AIU oral, 10 Min.): 106 ± 1.8 mg% | Blood Glucose (Mean ± SD) (starch digestion; 1 g starch + 300 AIU oral, 15 Min.): 110 ± 8.9 mg% | Blood Glucose (Mean ± SD) (starch digestion; 1 g starch + 300 AIU oral, 20 Min.): 111 ± 2.1 mg% | Blood Glucose (Mean ± SD) (starch digestion; 1 g starch + 300 AIU oral, 30 Min.): 108 ± 5.3 mg% | Blood Glucose (Mean ± SD) (starch digestion; 1 g starch + 300 AIU oral, 45 Min.): 121 ± 7.2 mg% | ED50 (starch digestion): 0.76 mg/kg | in vivo inhibition of starch digestion, in words (starch digestion): much higher than would be expected | solubility (Solubility): good solubility

C[C@H]1O[C@H](O[C@H]2[C@H](O)[C@@H](O)[C@@H](O[C@H]3[C@H](O)[C@@H](O)C(O)O[C@@H]3CO)O[C@@H]2CO)[C@H](O)[C@@H](O)[C@@H]1N[C@H]1C=C(CO)[C@@H](O[C@H]2O[C@H](CO)[C@@H](O)[C@H](O)[C@H]2O)[C@H](O)[C@H]1O (stereo partly drawn) [Formula V, O-{4,6-bisdesoxy-4-[1 S-(1,4,6/5)-4,5,6-trihydroxy-3-hydroxymethyl-4-O-α-D-glucopyranosyl-(1→4)-cyclohex-2-en-1-ylamino]-α-D-glycopyranosyl}-(1→4)-O-α-D-glucopyranosyl-(1→4)-D-glucopyranose]
Saccharase Inhibition (saccharase; in vitro): 21,000 SIU/g | Saccharase Inhibition In Vitro (saccharase; in vitro): 21 SIU/mg | saccharase inhibiting activity of isolated product (saccharase): 21,000 SIU/g | Blood Glucose (Mean ± SD) (starch digestion; 1 g starch + 750 AIU oral, 5 Min.): 86 ± 8.5 mg% | Blood Glucose (Mean ± SD) (starch digestion; 1 g starch + 750 AIU oral, 10 Min.): 107 ± 5.0 mg% | Blood Glucose (Mean ± SD) (starch digestion; 1 g starch + 750 AIU oral, 15 Min.): 117 ± 8.7 mg% | Blood Glucose (Mean ± SD) (starch digestion; 1 g starch + 750 AIU oral, 20 Min.): 121 ± 12 mg% | Blood Glucose (Mean ± SD) (starch digestion; 1 g starch + 750 AIU oral, 30 Min.): 126 ± 11 mg% | Blood Glucose (Mean ± SD) (starch digestion; 1 g starch + 750 AIU oral, 45 Min.): 114 ± 3.6 mg% | Blood Glucose (Mean ± SD) (starch digestion; 1 g starch + 1,500 AIU oral, 5 Min.): 77 ± 14 mg% | Blood Glucose (Mean ± SD) (starch digestion; 1 g starch + 1,500 AIU oral, 10 Min.): 92 ± 9.6 mg% | Blood Glucose (Mean ± SD) (starch digestion; 1 g starch + 1,500 AIU oral, 15 Min.): 94 ± 9.5 mg% | Blood Glucose (Mean ± SD) (starch digestion; 1 g starch + 1,500 AIU oral, 20 Min.): 113 ± 9.7 mg% | Blood Glucose (Mean ± SD) (starch digestion; 1 g starch + 1,500 AIU oral, 30 Min.): 112 ± 8.8 mg% | Blood Glucose (Mean ± SD) (starch digestion; 1 g starch + 1,500 AIU oral, 45 Min.): 111 ± 4.2 mg% | Blood Glucose (Mean ± SD) (starch digestion; 1 g starch + 3,000 AIU oral, 5 Min.): 65 ± 5.6 mg% | Blood Glucose (Mean ± SD) (starch digestion; 1 g starch + 3,000 AIU oral, 10 Min.): 101 ± 3.3 mg% | Blood Glucose (Mean ± SD) (starch digestion; 1 g starch + 3,000 AIU oral, 15 Min.): 82 ± 11 mg% | Blood Glucose (Mean ± SD) (starch digestion; 1 g starch + 3,000 AIU oral, 20 Min.): 112 ± 4.5 mg% | Blood Glucose (Mean ± SD) (starch digestion; 1 g starch + 3,000 AIU oral, 30 Min.): 109 ± 6.4 mg% | Blood Glucose (Mean ± SD) (starch digestion; 1 g starch + 3,000 AIU oral, 45 Min.): 104 ± 2.5 mg% | ED50 (starch digestion): 1.61 mg/kg | in vivo inhibition of starch digestion, in words (starch digestion): much higher than would be expected
